Values of other authors in patent US20100166671A1, “ORGANIC COMPOUNDS” (priority 2006, published 2010).

Settings: single administration of a metered dose, aerosol formulation, treating asthma

In the case of `C[N+]1(C)CCC(OC(=O)C(O)(c2ccccc2)C2CCCC2)C1.[Br-]` (stereo not shown) [glycopyrrolate, 3-[(cyclopentyl-hydroxyphenylacetyl)oxy]-1,1-dimethylpyrrolidinium bromide], the duration of bronchodilation is listed as “up to 12 hours”.
